# Results: patent US10844077B2, “Thiazolyl-containing compounds for treating proliferative diseases” (Dana-Farber Cancer Institute, Inc., priority 2014, dated 2020)
# Where two headings read alike, the source gives them in different places.
# How the values were obtained:
# Type in all cases: binding
# broad panel of kinases [1] = biological target: broad panel of kinases (Homo sapiens, UniProt P51617); settings: IRAK1; 1 μM
# broad panel of kinases [2] = biological target: broad panel of kinases (Homo sapiens, UniProt Q02750); settings: MEK1; 1 μM
# broad panel of kinases [3] = biological target: broad panel of kinases (Homo sapiens, UniProt P32298); settings: GRK4; 1 μM
# broad panel of kinases [4] = biological target: broad panel of kinases (Homo sapiens, UniProt Q9HCP0); settings: CSNK1G1; 1 μM
# broad panel of kinases [5] = biological target: broad panel of kinases (Homo sapiens, UniProt P10721, D816H); settings: KIT(D816H); 1 μM
# broad panel of kinases [6] = biological target: broad panel of kinases (Homo sapiens, UniProt Q8TD19); settings: NEK9; 1 μM
# Sequence of broad panel of kinases (Homo sapiens, UniProt Q8TD19) (Q8TD19 2-979 limits assumed): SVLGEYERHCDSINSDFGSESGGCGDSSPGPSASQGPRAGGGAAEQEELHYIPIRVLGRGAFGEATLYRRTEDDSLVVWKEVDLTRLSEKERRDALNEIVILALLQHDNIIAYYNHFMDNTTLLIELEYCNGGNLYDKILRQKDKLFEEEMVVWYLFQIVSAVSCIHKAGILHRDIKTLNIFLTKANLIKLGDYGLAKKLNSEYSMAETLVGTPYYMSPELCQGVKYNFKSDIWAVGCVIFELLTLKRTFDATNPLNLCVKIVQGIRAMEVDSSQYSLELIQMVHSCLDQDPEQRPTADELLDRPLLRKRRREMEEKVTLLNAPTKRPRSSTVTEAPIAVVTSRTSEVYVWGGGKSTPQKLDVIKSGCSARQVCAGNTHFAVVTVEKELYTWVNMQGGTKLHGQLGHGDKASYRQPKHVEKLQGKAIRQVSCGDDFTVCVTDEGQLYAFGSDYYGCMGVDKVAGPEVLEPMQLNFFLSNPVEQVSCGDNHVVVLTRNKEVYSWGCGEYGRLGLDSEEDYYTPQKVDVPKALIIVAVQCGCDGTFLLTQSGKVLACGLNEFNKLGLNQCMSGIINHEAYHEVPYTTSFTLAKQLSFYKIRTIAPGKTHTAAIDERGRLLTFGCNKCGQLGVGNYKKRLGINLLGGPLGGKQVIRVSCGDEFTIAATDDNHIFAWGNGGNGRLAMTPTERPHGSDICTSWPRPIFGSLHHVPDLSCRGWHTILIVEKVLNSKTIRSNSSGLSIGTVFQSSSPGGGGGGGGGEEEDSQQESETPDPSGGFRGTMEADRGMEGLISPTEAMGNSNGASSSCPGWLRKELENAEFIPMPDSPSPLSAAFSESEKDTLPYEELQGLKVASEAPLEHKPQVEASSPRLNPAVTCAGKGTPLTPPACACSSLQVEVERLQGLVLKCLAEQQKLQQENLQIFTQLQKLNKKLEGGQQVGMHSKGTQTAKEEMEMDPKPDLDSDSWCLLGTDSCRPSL
# broad panel of kinases [7] = biological target: broad panel of kinases (Homo sapiens, UniProt Q9NY57); settings: YANK2; 1 μM
# broad panel of kinases [8] = biological target: broad panel of kinases (Homo sapiens, UniProt Q13705); settings: ACVR2B; 1 μM
# Sequence of broad panel of kinases (Homo sapiens, UniProt Q13705) (Q13705 19-512 limits assumed): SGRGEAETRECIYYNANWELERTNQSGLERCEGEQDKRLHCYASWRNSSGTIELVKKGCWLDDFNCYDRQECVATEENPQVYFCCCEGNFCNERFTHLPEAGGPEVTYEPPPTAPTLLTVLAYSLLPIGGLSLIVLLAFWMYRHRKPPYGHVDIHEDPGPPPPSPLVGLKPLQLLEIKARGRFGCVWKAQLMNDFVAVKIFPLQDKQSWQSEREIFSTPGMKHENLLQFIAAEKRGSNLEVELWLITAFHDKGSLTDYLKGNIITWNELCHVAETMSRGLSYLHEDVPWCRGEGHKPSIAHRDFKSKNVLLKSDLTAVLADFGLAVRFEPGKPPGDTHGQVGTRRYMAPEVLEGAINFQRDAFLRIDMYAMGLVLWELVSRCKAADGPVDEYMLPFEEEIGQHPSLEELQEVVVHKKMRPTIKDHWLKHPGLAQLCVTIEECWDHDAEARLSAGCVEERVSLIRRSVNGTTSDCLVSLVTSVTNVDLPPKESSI
# broad panel of kinases [9] = biological target: broad panel of kinases (Homo sapiens, UniProt Q9UF33); settings: EPHA6; 1 μM
# broad panel of kinases [10] = biological target: broad panel of kinases (Homo sapiens, UniProt Q13555); settings: CAMK2G; 1 μM
# broad panel of kinases [11] = biological target: broad panel of kinases (Homo sapiens, UniProt P28482); settings: ERK2; 1 μM
# Sequence of broad panel of kinases (Homo sapiens, UniProt P28482) (P28482 2-360 limits assumed): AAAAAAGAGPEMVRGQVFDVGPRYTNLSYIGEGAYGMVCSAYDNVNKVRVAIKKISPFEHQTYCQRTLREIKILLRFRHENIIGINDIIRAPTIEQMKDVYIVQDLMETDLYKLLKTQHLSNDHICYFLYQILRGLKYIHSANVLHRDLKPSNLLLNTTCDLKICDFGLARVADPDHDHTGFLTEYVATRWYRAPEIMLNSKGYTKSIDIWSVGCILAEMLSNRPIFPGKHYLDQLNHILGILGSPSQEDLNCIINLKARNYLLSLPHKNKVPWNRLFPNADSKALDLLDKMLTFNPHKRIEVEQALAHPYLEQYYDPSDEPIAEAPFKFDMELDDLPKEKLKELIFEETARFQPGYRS
# broad panel of kinases [12] = biological target: broad panel of kinases (Homo sapiens, UniProt O60285); settings: ARK5; 1 μM
# broad panel of kinases [13] = biological target: broad panel of kinases (Homo sapiens, UniProt Q16288); settings: TRKC; 1 μM
# Sequence of broad panel of kinases (Homo sapiens, UniProt Q16288) (Q16288 32-839 limits assumed): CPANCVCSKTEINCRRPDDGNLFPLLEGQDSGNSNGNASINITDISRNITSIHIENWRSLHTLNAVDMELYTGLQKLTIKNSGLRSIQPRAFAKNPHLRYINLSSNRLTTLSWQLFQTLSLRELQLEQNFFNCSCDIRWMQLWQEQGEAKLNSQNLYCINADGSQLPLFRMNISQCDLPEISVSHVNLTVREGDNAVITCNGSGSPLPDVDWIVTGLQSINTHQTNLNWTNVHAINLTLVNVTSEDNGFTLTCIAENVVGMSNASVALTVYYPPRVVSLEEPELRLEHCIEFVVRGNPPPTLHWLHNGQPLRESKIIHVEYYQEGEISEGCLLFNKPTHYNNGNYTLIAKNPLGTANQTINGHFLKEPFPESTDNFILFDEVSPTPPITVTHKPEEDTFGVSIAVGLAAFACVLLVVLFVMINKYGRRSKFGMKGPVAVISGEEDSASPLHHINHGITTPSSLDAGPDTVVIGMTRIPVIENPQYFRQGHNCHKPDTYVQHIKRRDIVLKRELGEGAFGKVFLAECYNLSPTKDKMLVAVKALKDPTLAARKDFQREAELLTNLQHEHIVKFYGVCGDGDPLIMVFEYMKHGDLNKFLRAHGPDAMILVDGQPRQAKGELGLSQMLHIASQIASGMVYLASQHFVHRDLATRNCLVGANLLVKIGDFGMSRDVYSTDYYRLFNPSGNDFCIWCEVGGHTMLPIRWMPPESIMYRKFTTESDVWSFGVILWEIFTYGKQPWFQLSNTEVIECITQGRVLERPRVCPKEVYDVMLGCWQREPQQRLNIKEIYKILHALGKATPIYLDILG
# broad panel of kinases [14] = biological target: broad panel of kinases (Homo sapiens, UniProt P42336, C420R); settings: PIK3CA(C420R); 1 μM
# broad panel of kinases [15] = biological target: broad panel of kinases (Homo sapiens, UniProt Q9UEW8); settings: STK39; 1 μM
# broad panel of kinases [16] = biological target: broad panel of kinases (Homo sapiens, UniProt O43683); settings: BUB1; 1 μM
# broad panel of kinases [17] = biological target: broad panel of kinases (Homo sapiens, UniProt P45983); settings: JNK1; 1 μM
# broad panel of kinases [18] = biological target: broad panel of kinases (Homo sapiens, UniProt P42336, E542K); settings: PIK3CA(E542K); 1 μM
# broad panel of kinases [19] = biological target: broad panel of kinases (Homo sapiens, UniProt P22607); settings: FGFR3; 1 μM
# Sequence of broad panel of kinases (Homo sapiens, UniProt P22607) (P22607 23-806 limits assumed): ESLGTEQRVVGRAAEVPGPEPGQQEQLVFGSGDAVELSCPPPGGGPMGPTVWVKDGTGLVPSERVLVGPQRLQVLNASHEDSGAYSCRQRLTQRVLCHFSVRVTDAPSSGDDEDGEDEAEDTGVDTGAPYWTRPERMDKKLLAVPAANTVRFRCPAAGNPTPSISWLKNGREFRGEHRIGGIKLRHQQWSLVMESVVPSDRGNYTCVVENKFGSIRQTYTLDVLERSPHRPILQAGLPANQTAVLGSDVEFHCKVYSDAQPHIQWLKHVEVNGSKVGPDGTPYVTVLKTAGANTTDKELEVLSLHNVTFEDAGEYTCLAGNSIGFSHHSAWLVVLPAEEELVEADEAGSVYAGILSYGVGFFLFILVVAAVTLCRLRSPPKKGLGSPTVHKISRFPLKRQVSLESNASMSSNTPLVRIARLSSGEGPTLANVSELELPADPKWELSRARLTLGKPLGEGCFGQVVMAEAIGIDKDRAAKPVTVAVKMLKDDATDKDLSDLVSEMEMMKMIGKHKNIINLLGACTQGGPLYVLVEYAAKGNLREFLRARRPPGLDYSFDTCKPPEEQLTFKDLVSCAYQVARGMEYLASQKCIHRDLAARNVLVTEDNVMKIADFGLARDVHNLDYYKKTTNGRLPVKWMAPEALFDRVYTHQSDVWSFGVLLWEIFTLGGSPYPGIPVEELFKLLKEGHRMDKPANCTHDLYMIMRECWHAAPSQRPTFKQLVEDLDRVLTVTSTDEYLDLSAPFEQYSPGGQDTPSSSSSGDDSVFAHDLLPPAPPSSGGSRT
# broad panel of kinases [20] = biological target: broad panel of kinases (Homo sapiens, UniProt Q02156); settings: PRKCE; 1 μM
# broad panel of kinases [21] = biological target: broad panel of kinases (Homo sapiens, UniProt Q9Y463); settings: DYRK1B; 1 μM
# broad panel of kinases [22] = biological target: broad panel of kinases (Homo sapiens, UniProt Q7L7X3); settings: TAOK1; 1 μM
# broad panel of kinases [23] = biological target: broad panel of kinases (Homo sapiens, UniProt O75676); settings: 1 μM
# broad panel of kinases [24] = biological target: broad panel of kinases (Homo sapiens, UniProt Q86UE8); settings: TLK2; 1 μM
# broad panel of kinases [25] = biological target: broad panel of kinases (Homo sapiens, UniProt O15197); settings: EPHB6; 1 μM
# Sequence of broad panel of kinases (Homo sapiens, UniProt O15197) (O15197 32-1021 limits assumed): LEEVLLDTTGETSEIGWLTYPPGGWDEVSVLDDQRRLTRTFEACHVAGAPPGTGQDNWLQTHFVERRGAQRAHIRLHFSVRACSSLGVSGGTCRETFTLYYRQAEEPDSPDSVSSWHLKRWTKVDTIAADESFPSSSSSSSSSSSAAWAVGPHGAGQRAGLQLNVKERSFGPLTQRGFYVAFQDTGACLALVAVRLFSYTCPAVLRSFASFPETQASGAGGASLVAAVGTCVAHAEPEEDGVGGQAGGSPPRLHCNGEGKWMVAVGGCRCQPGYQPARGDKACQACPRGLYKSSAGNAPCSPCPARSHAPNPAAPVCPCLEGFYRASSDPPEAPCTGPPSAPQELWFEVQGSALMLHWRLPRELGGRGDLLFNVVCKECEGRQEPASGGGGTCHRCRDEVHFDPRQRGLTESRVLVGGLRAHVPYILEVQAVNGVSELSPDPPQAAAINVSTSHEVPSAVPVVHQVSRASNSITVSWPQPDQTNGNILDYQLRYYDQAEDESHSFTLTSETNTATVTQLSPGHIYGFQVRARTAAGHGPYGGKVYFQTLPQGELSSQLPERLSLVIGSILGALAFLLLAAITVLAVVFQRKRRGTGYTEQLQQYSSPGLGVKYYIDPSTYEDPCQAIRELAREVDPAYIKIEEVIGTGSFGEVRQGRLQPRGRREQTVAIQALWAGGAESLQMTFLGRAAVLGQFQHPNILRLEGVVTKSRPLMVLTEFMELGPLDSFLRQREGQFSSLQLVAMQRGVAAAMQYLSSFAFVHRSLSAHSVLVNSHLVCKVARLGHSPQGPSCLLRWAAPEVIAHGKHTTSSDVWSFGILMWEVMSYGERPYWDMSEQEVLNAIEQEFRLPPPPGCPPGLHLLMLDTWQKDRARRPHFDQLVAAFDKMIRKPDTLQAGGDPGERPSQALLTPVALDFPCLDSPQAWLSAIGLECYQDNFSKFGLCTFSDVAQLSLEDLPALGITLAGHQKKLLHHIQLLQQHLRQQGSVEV
# broad panel of kinases [26] = biological target: broad panel of kinases (Homo sapiens, UniProt Q9BUB5); settings: MKNK1; 1 μM
# broad panel of kinases [27] = biological target: broad panel of kinases (Homo sapiens, UniProt O75716); settings: STK16; 1 μM
# Sequence of broad panel of kinases (Homo sapiens, UniProt O75716) (O75716 2-305 limits assumed): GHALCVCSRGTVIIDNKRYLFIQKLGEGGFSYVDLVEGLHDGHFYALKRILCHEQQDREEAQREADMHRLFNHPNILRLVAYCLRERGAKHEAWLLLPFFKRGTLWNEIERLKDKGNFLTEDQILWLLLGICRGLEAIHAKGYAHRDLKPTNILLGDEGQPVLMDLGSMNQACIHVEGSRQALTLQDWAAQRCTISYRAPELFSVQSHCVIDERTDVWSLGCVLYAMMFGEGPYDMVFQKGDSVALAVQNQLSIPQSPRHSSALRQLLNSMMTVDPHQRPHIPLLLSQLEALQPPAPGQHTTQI
# broad panel of kinases [28] = biological target: broad panel of kinases (Homo sapiens, UniProt P57058); settings: HUNK; 1 μM
# broad panel of kinases [29] = biological target: broad panel of kinases (Homo sapiens, UniProt O43318); settings: TAK1; 1 μM
# broad panel of kinases [30] = biological target: broad panel of kinases (Homo sapiens, UniProt Q02779); settings: MLK2; 1 μM
# broad panel of kinases [31] = biological target: broad panel of kinases (Homo sapiens, UniProt P48730); settings: CSNK1D; 1 μM
# broad panel of kinases [32] = biological target: broad panel of kinases (Homo sapiens, UniProt P52564); settings: MEK6; 1 μM
# broad panel of kinases [33] = biological target: broad panel of kinases (Homo sapiens, UniProt Q99759); settings: MAP3K3; 1 μM
# broad panel of kinases [34] = biological target: broad panel of kinases (Homo sapiens, UniProt Q8TF76); settings: HASPIN; 1 μM
# broad panel of kinases [35] = biological target: broad panel of kinases (Homo sapiens, UniProt Q06418); settings: TYRO3; 1 μM
# broad panel of kinases [36] = biological target: broad panel of kinases (Homo sapiens, UniProt Q9Y5S2); settings: MRCKB; 1 μM
# broad panel of kinases [37] = biological target: broad panel of kinases (Homo sapiens, UniProt Q13131); settings: AMPK-alpha1; 1 μM
SMILES,percent of control binding remaining (lower = stronger binding) (broad panel of kinases [1]) [%],percent of control binding remaining (lower = stronger binding) (broad panel of kinases [2]) [%],percent of control binding remaining (lower = stronger binding) (broad panel of kinases [3]) [%],percent of control binding remaining (lower = stronger binding) (broad panel of kinases [4]) [%],percent of control binding remaining (lower = stronger binding) (broad panel of kinases [5]) [%],percent of control binding remaining (lower = stronger binding) (broad panel of kinases [6]) [%],percent of control binding remaining (lower = stronger binding) (broad panel of kinases [7]) [%],percent of control binding remaining (lower = stronger binding) (broad panel of kinases [8]) [%],percent of control binding remaining (lower = stronger binding) (broad panel of kinases [9]) [%],percent of control binding remaining (lower = stronger binding) (broad panel of kinases [10]) [%],percent of control binding remaining (lower = stronger binding) (broad panel of kinases [11]) [%],percent of control binding remaining (lower = stronger binding) (broad panel of kinases [12]) [%],percent of control binding remaining (lower = stronger binding) (broad panel of kinases [13]) [%],percent of control binding remaining (lower = stronger binding) (broad panel of kinases [14]) [%],percent of control binding remaining (lower = stronger binding) (broad panel of kinases [15]) [%],percent of control binding remaining (lower = stronger binding) (broad panel of kinases [16]) [%],percent of control binding remaining (lower = stronger binding) (broad panel of kinases [17]) [%],percent of control binding remaining (lower = stronger binding) (broad panel of kinases [18]) [%],percent of control binding remaining (lower = stronger binding) (broad panel of kinases [20]) [%],percent of control binding remaining (lower = stronger binding) (broad panel of kinases [21]) [%],also measured
C=CC(=O)N1CC[C@H](Nc2nc(CN3CCOCC3)cc(Nc3ncc(C(=O)Nc4c(C)cccc4C)s3)n2)C1 [Example I-2],84,67,100,100,14,100,100,78,100,91,100,99,99,100,92,85,94,92,100,94,percent of control binding remaining (lower = stronger binding) (broad panel of kinases [19]): 99%; percent of control binding remaining (lower = stronger binding) (broad panel of kinases [22]): 93%; percent of control binding remaining (lower = stronger binding) (broad panel of kinases [23]; RPS6KA4(Kin.Dom.1-N-terminal)): 100%; percent of control binding remaining (lower = stronger binding) (broad panel of kinases [23]; RPS6KA4(Kin.Dom.2-C-terminal)): 96%; percent of control binding remaining (lower = stronger binding) (broad panel of kinases [24]): 97%; percent of control binding remaining (lower = stronger binding) (broad panel of kinases [25]): 7.7%; percent of control binding remaining (lower = stronger binding) (broad panel of kinases [26]): 100%; percent of control binding remaining (lower = stronger binding) (broad panel of kinases [27]): 99%; percent of control binding remaining (lower = stronger binding) (broad panel of kinases [28]): 100%; percent of control binding remaining (lower = stronger binding) (broad panel of kinases [29]): 95%; percent of control binding remaining (lower = stronger binding) (broad panel of kinases [30]): 100%; percent of control binding remaining (lower = stronger binding) (broad panel of kinases [31]): 100%; percent of control binding remaining (lower = stronger binding) (broad panel of kinases [32]): 82%; percent of control binding remaining (lower = stronger binding) (broad panel of kinases [33]): 79%; percent of control binding remaining (lower = stronger binding) (broad panel of kinases [34]): 100%; percent of control binding remaining (lower = stronger binding) (broad panel of kinases [35]): 41%; percent of control binding remaining (lower = stronger binding) (broad panel of kinases [36]): 89%; percent of control binding remaining (lower = stronger binding) (broad panel of kinases [37]): 100%
C=CC(=O)N1CC[C@H](Nc2nccc(Nc3ncc(C(=O)Nc4c(C)cccc4C)s3)n2)C1 [Example I-3],93,100,100,100,23,100,96,95,100,97,100,100,96,99,71,68,81,100,100,74,% change compared to control (broad panel of kinases [19]): 100%; percent of control binding remaining (lower = stronger binding) (broad panel of kinases [22]): 98%; percent of control binding remaining (lower = stronger binding) (broad panel of kinases [23]; RPS6KA4(Kin.Dom.1-N-terminal)): 100%; percent of control binding remaining (lower = stronger binding) (broad panel of kinases [23]; RPS6KA4(Kin.Dom.2-C-terminal)): 100%; percent of control binding remaining (lower = stronger binding) (broad panel of kinases [24]): 94%; percent of control binding remaining (lower = stronger binding) (broad panel of kinases [25]): 4.6%; percent of control binding remaining (lower = stronger binding) (broad panel of kinases [26]): 100%; percent of control binding remaining (lower = stronger binding) (broad panel of kinases [27]): 89%; percent of control binding remaining (lower = stronger binding) (broad panel of kinases [28]): 83%; percent of control binding remaining (lower = stronger binding) (broad panel of kinases [29]): 90%; percent of control binding remaining (lower = stronger binding) (broad panel of kinases [30]): 95%; percent of control binding remaining (lower = stronger binding) (broad panel of kinases [31]): 99%; percent of control binding remaining (lower = stronger binding) (broad panel of kinases [32]): 89%; percent of control binding remaining (lower = stronger binding) (broad panel of kinases [33]): 94%; percent of control binding remaining (lower = stronger binding) (broad panel of kinases [34]): 88%; percent of control binding remaining (lower = stronger binding) (broad panel of kinases [35]): 41%; percent of control binding remaining (lower = stronger binding) (broad panel of kinases [36]): 100%; percent of control binding remaining (lower = stronger binding) (broad panel of kinases [37]): 98%
